These results are taken from patent US8629328B2 (Monsanto Technology LLC, priority 2006, dated 2014).

Each structure is given as a SMILES string.

The experiment relates to soybean plants transformed with the DMO-encoding polynucleotide construct (Events 1-4). Here is the method:
Transgenic soybean plants were obtained by Agrobacterium transformation of soybean cotyledonary nodes using standard procedures and a binary vector containing the DMO-encoding polynucleotide given as SEQ ID NO:7, which encodes the polypeptide of SEQ ID NO:8. Four transgenic soybean events were prepared and designated Events 1-4. […] Non-transgenic soybean plants were used as controls.
Transgenic and control soybean seeds were planted into 3.5-inch square plastic pots containing Redi-earth™ (Scotts-Siena Horticultural Products Co., Marysville, Ohio). […] The pots were placed on capillary matting in 35 inch×60 inch fiberglass watering trays for overhead and/or sub-irrigation for the duration of the test period so as to maintain optimum soil moisture for plant growth and were fertilized with Osmocote (14-14-14 slow release; Scotts-Siena Horticultural Products Co., Marysville, Ohio) at the rate of 100 gm/cu.ft. to sustain plant growth for the duration of greenhouse trials.
The plants were grown in greenhouses at 27°/21° C. day/night temperature with relative humidity between 25%-75% to simulate warm season growing conditions of late spring. A 14 h minimum photoperiod was provided with supplemental light at about 600 μE as needed.
Treated plants in greenhouse trials were visually assessed at a particular day after treatment (DAT) for injury on a scale of 0 to 100 percent relative to untreated control plants, with zero representing “no” injury and 100% representing “complete” injury or death. Data were collected and analyzed using suitable statistical methods.
The spray nozzle was kept at a height of about 16 inches above the top of the plant material for spraying. The spray volume was 10 gallons per acre or 93 liters per hectare.

For the compound `COc1c(Cl)ccc(Cl)c1C(=O)O` [dicamba, 3,6-dichloro-o-anisic acid], the “injury to transgenic dicamba tolerant plants” value (approximately 2× rate of application of 1122 g/ha) is “less than 2%”. Further, the “injury to transgenic plants” value (at sowing + post-emergence, overall dicamba rate 10080 g/ha, 9 lb/acre, 18× labeled rate) is on record as “less than 20%”. The “injury to transgenic events” value (late pre-emergence + post-emergence, overall 10080 g/ha, 9 lb/acre, 18× labeled rate) is “less than 20%”. Under “late pre-emergence at soil cracking, 5040 g/ha, 4.5 lb/acre, 9× labeled rate”, the “injury in the transgenic events” value is “less than 5%”.
